In US11883398B2, “Dipeptidylpeptidase 4 inhibition enhances lymphocyte trafficking, improving both naturally occurring tumor immunity and immunotherapy” (INSTITUT PASTEUR, priority 2015, dated 2024):

Experiments:
[1] = system: M04 (B16F10 transfected with OVA); test: B16-OVA (M04) tumor growth with OT1 adoptive T cell transfer; type: in vivo, mouse
Description: B16F10 and M04 (Ovalbumin-expressing B16F10 cells, gift from C. Reis e Sousa) tumor cells were cultured in DMEM (Gibco) supplemented with 10% FCS (PAA), 0.1 mM non-essential amino acids, 1 mM sodium pyruvate, 10 mM Hepes, 70 μM beta-mercaptoethanol and 23 μg/ml gentamycin (all from Gibco). CT26 colon carcinoma cells were cultured in RPMI (Gibco) supplemented as described for DMEM. Cells for injections were passaged 1-2 times after thawing, before use. WT and genetically modified mice were subcutaneously injected with 2×10^5 B16 or 5×10^5 CT26 cells in the shaved right flank. When indicated, mice received an intra-tumoral injection of 1 μg of recombinant mCXCL10, 5 μg CpG-A in DOPTAP or vehicle control. […] Tumor height and width were measured with a caliper and tumor volume was calculated (Elliptical volume=width^2×height×0.523). […] 15 days after tumor cell injection, lungs were dissected, placed in Fekete's solution and metastatic foci were counted. […]

mCXCL10 = conditions: sitagliptin vs control
Description: Plates were washed twice with 300 μL of PBS. Blocking was done with BSA 1% (proteinase free, Gibco), in PBS for 2h at room temperature. Plates were washed 3 times with 300 μL of 0.05% Tween-20 in PBS. Tumor and plasma samples were diluted in BSA 1% and incubated for 2h, at room temperature. To obtain a standard curve, and to control for the cross-reactivity of the detection antibody, dilutions of recombinant mCXCL10 (Peprotech) or DPP4-digested mCXCL10(3-77) were incubated in parallel. For detection of mCXCL10(1-77), biotinylated α-mCXCL10(1-77) (AbDSerotec, 0.5 μg/ml, clone AbD17185.1), Streptavidin-HRP (BD Biosciences) and 1-STEP ULTRA TMB (Thermo Scientific) were used.
Enzymatic reactions were stopped with HCL 1N and plates were read with 450 nm in a Lab-systems […] MS (Thermo) reader. […] Detection of mDPP4, mCCL22 and mCXCL12 was done with the DUOSET® ELISA kit (R&D). Detection of mVEGF, mCCL2 and mCCL3 was done with a multiplex kit (Invitrogen).

B16F10 tumors = test: Histology of B16F10 tumors (CD31, CD3, H&E); type: in vivo, mouse; conditions: untreated vs sitagliptin-treated mice
Description: B16F10 tumors were dissected and fixed in JB fixative (zinc acetate 0.5%, zinc chloride 0.05%, and calcium acetate 0.05% in Tris buffer, pH 7) for 48 hours, prior to being embedded in low-melting point paraffin (Poly Ethylene Glycol Distearate; Sigma, USA). 5 μm thick paraffin sections were deparafinized in absolute ethanol, air dried, and routinely stained with hematoxylin-eosin or used for immunolabelling. For immunohistochemistry, the following primary antibodies were used: anti-CD3 (rabbit α-human, clone A0452, DAKO, Carpinteria, CA) and anti-CD31 (rat a-mouse, clone 1/75e, BD Pharmingen, Franklin Lake, NJ, USA). CD31 immunolabelled sections were digitalized using a Zeiss Axio Scan Z.1 at ×20. For histomorphometry of blood vessels, CD31 positive profiles were manually delineated on digitalized images, using the “area” tool of the Zen software (Zeiss) at a magnification of 30%. The whole tumor surface was also delineated in the same way at a magnification of 2%. Mean number of blood vessels per mm2 and mean vessel area were then calculated for each group of mice.

N[C@@H](CC(=O)N1CCn2c(nnc2C(F)(F)F)C1)Cc1cc(F)c(F)cc1F [sitagliptin]
reduction in tumor size ([1]; B16-OVA tumors, day 15): ~50% | B16-OVA tumor growth ([1]; monotherapies vs control): significant delay | quantity of plasma mCCL2 (mCXCL10; CpG-A intravenously): higher | CpG-A-induced plasma total CXCL10 (mCXCL10; WT mice, 5 μg CpG-A intravenously): stabilization of CpG-A-induced plasma CXCL10 | quantity of plasma mCXCL10(1-77) (mCXCL10; WT mice, CpG-A intravenously): significantly higher | number and diameter of tumor blood vessels (CD31 staining) (B16F10 tumors): no difference in the number, nor the diameter of blood vessels
